Measured values reported in publication PMC6050476, “Pre-clinical Pharmacokinetic and Metabolomic Analyses of Isorhapontigenin, a Dietary Resveratrol Derivative” (Frontiers in Pharmacology, 2018).

Assay: Plasma pharmacokinetics of isorhapontigenin in Sprague-Dawley rats (LC–MS/MS)
Type: in vivo
Conditions: rat
Description: This in vivo study was conducted with strict adherence to the “Guidelines on the Care and Use of Animals for Scientific Purposes” (Singapore). The pharmacokinetic study design and animal handling procedures were reviewed and approved by the Institutional Animal Care and Use Committee of the National University of Singapore (NUS; R15-1273). All animal experiments were carried out in a specific pathogen-free animal facility (temperature: 22 ± 1°C; humidity: 60–70%) in Comparative Medicine, NUS. Sprague-Dawley rats (male, 9–10 weeks old, weight: 300–350 g) were purchased from InVivos (Singapore). The rats were housed under a 12 h light–dark cycle with free access to food and water. On the day before the pharmacokinetic study, surgery was performed under isoflurane anesthesia and a catheter (polyethylene tube, i.d. = 0.580 mm, o.d. = 0.965 mm, Becton Dickinson, Sparks, MD, United States) was implanted into the right jugular vein. Intravenous ISO administration and blood collection were carried out via this cannula. To prevent cross-contamination and blood clotting, ∼0.3 mL heparin-saline (10 I.U./mL) was flushed through the cannula after intravenous dosing or each blood collection. This reliable pharmacokinetic model has been routinely used in our laboratory to assess the pharmacokinetic profiles of resveratrol and its derivatives ([Yeo et al., 2013a],[b], [2017]; [Choo et al., 2014]; [Chen et al., 2015], [2016b],[c]; [Dai et al., 2018]).
0.3 M HP-β-CD was used to formulate ISO into a solution for intravenous injection while 0.3% CMC (w/v) was applied as a suspending vehicle for oral delivery ([Yeo et al., 2017]). To enhance the stability of ISO, L-ascorbic acid (final concentration: 0.1 mg/mL) was spiked into both intravenous and oral formulations ([Yeo et al., 2017]). The concentrations of ISO in intravenous and oral formulations were 5 and 13.3 mg/mL, respectively.
Twenty-two rats were divided into four groups. Group 1 (n = 5) received a single bolus intravenous injection of ISO at the dose of 90 μmol/kg (23.2 mg/kg). Serial blood samples were collected before dosing and at 5, 15, 30, 60, 90, 120, 180, 240, 300, 420, 540, and 720 min after intravenous injection. Group 2 (n = 5) received a single oral administration of ISO at the dose of 200 μmol/kg (51.6 mg/kg). Serial blood samples were collected before dosing and at 15, 30, 45, 60, 90, 120, 180, 240, 300, 420, 540, and 720 min after oral gavage. Group 3 (n = 5) received daily oral pre-treatment of oral dosing vehicle (2 mL/kg) while Group 4 (n = 7) received daily oral pre-treatment of ISO at the dose of 100 μmol/kg (25.8 mg/kg) for 1 week. On day 7, ∼8–10 h after the last pre-treatment dose, surgery was performed on rats in Groups 3 and 4 for jugular vein cannulation, and blood samples were also collected from Groups 3 and 4 for metabolomic study. On day 8, the pharmacokinetic study was carried out on these two groups of animals at the dose of 100 μmol/kg (25.8 mg/kg) using the same blood sampling schedule as Group 2.
All blood samples during the pharmacokinetic study were collected in heparinized tubes containing L-ascorbic acid (final concentration = 0.8 mg/mL) to ensure stability of ISO ([Yeo et al., 2017]). The samples were centrifuged at 5000 g for 5 min, and the plasma was harvested and stored at −40°C until LC–MS/MS analysis.
The LC–MS/MS analysis was carried out using an Agilent 1290 Infinity Liquid Chromatography system (Agilent Technologies, Santa Clara, CA, United States), which is coupled to an ABSciex QTRAP® 5500 mass spectrometer (AB Sciex, Framingham, MA, United States) and equipped with a TurboIon Spray probe (AB Sciex). The LC–MS/MS system was controlled by the Analyst 1.5.2 software (AB Sciex) and chromatographic data analysis was performed using the same software. […]

[1] = Group 1, single intravenous 90 μmol/kg, HP–β–CD
[2] = Group 2, single oral 200 μmol/kg, suspension
[3] = Group 3, oral 100 μmol/kg after 1-week vehicle pre-treatment, suspension
[4] = Group 4, oral 100 μmol/kg after 1-week daily oral ISO 100 μmol/kg pre-treatment, suspension
[5] = male, Sprague-Dawley, plasma, po, 100 umol/kg, Group 3, oral 100 μmol/kg after 1-week vehicle pre-treatment, suspension
[6] = male, Sprague-Dawley, plasma, po, 100 umol/kg, Group 4, oral 100 μmol/kg after 1-week daily oral ISO 100 μmol/kg pre-treatment, suspension
[7] = male, Sprague-Dawley, plasma, po, 200 umol/kg, Group 2, single oral 200 μmol/kg, suspension
[8] = single intravenous 90 μmol/kg, resveratrol data ref Chen et al., 2016c
[9] = single oral 200 μmol/kg, resveratrol data ref Chen et al., 2016c

COc1cc(/C=C/c2cc(O)cc(O)c2)ccc1O [isorhapontigenin, trans-3,5,4′-trihydroxy-3′-methoxystilbene]
AUC0→last /Dose [1]: 14.2 ± 5.2 kg⋅min/L
V [1]: 0.893 ± 0.103 L/kg
AUC0→last /Dose [2]: 4.28 ± 0.94 kg⋅min/L
Cmax /Dose [2]: 27800 ± 3200 µg/mL
AUC0→last /Dose [3]: 2.54 ± 0.69 kg⋅min/L
Cmax /Dose [3]: 29200 ± 2800 µg/mL
AUC0→last /Dose [4]: 2.97 ± 0.80 kg⋅min/L
Cmax /Dose [4]: 23900 ± 6200 µg/mL
clearance (male, Sprague-Dawley, plasma, 90 umol/kg, Group 1, single intravenous 90 μmol/kg, HP–β–CD): 76.8 ± 23.7 mL/min/kg
Tmax (male, Sprague-Dawley, plasma, 100 umol/kg, Group 3, oral 100 μmol/kg after 1-week vehicle pre-treatment, suspension): 0.25 h
Tmax (male, Sprague-Dawley, plasma, 200 umol/kg, Group 2, single oral 200 μmol/kg, suspension): 0.25 to 0.75 h
MRT (male, Sprague-Dawley, plasma, iv, 90 umol/kg, Group 1, single intravenous 90 μmol/kg, HP–β–CD): 0.313 h
MRT [5]: 2.27 h
bioavailability [5]: 17.9 ± 4.9%
MRT [6]: 3.03 h
bioavailability [6]: 20.8 ± 5.6%
MRT [7]: 3.07 h
bioavailability [7]: 30.1 ± 6.6%
CL relative to resveratrol [8]: comparable to resveratrol
V relative to resveratrol [8]: comparable to resveratrol
average MRT longer than resveratrol [8]: ~70%
time ISO remained measurable in the systemic circulation after administration (single oral 100 μmol/kg): at least 12 h
F relative to resveratrol [9]: two to three folds greater
dose normalized AUC0→t (AUC0→t/Dose) relative to resveratrol [9]: two to three folds greater
dose normalized Cmax (Cmax/Dose) relative to resveratrol [9]: two to three folds greater
